# Results published in patent US11999733B2, “Diacylglycerol kinase modulating compounds” (Gilead Sciences, Inc., priority 2021, dated 2024).
# Target: human DGKα (Homo sapiens, UniProt P23743)
# Assay: biochemical
# 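Note: recombinant enzyme acting on 18:1 DAG micelles (with POPS and octylglucoside) plus 200 µM ATP, 1 h at 25 °C, ADP generated read out by ADP-Glo luminescence.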
# human DGKα, sequence (P23743 whole entry): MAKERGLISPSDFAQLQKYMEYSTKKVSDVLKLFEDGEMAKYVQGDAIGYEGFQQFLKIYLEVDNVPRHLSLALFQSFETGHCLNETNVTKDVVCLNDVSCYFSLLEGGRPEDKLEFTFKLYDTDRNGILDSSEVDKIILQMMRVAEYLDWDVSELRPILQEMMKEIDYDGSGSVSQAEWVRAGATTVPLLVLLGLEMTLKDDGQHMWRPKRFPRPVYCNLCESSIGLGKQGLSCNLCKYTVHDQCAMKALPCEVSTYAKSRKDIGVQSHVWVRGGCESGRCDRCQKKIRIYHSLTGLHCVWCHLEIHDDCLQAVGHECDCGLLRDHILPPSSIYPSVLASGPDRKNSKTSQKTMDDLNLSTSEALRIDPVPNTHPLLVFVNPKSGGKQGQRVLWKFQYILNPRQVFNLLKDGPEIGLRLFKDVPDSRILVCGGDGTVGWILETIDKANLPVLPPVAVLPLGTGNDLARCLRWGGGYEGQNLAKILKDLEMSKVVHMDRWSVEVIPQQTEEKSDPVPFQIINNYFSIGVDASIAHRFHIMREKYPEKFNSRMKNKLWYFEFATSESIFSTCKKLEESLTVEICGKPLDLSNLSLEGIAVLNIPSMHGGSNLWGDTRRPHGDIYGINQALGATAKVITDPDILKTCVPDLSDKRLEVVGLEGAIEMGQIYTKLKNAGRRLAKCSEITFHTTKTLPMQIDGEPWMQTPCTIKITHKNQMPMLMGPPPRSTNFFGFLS
row,IC50,Compound
1,0.00273 µM,"CCC1(C#Cc2cccc3c2COCCN3c2nc3nnn(C)c3c3cncc(F)c23)COC1 [Example 3, 6-((3-ethyloxetan-3-yl)ethynyl)-1-(6-fluoro-1-methyl-1H-[1,2,3]triazolo[4,5-c][2,6]naphthyridin-5-yl)-1,2,3,5-tetrahydrobenzo[e][1,4]oxazepine]"
2,0.0422 µM,"Cn1nnc2nc(N(CC(F)F)c3cc(F)cc(C#CC(C)(C)C#N)c3)c3c(F)cncc3c21 [Example 16, 4-(3-((2,2-difluoroethyl)(6-fluoro-1-methyl-1H-[1,2,3]triazolo[4,5-c][2,6]naphthyridin-5-yl)amino)-5-fluorophenyl)-2,2-dimethylbut-3-ynenitrile]"
3,0.0225 µM,"Cn1nnc2nc(N(CC(F)F)c3cc(F)cc(C#CC(C)(C)O)c3)c3ccc(Cl)cc3c21 [Example 51, 4-(3-((8-chloro-1-methyl-1H-[1,2,3]triazolo[4,5-c]isoquinolin-5-yl)(2,2-difluoroethyl)amino)-5-fluorophenyl)-2-methylbut-3-yn-2-ol]"
4,0.0545 µM,"Cn1nnc2nc(N(CC(F)F)c3ccnc(C#CC4(C)CC4)c3)c3c(F)cccc3c21 [Example 24, N-(2,2-difluoroethyl)-6-fluoro-1-methyl-N-(2-((1-methylcyclopropyl)ethynyl)pyridin-4-yl)-1H-[1,2,3]triazolo[4,5-c]isoquinolin-5-amine]"
5,0.0649 µM,"Cn1nnc2nc(N(CC(F)F)c3cc(F)cc(C#CC4(C(F)(F)F)CC4)c3)c3c(F)cccc3c21 [Example 48, N-(2,2-difluoroethyl)-6-fluoro-N-(3-fluoro-5-((1-(trifluoromethyl)cyclopropyl)ethynyl)phenyl)-1-methyl-1H-[1,2,3]triazolo[4,5-c]isoquinolin-5-amine]"
6,0.0618 µM,"Cn1nnc2nc(N(CC(F)F)c3ccnc(C#CC4(C)CC4)c3)c3c(F)c(F)ccc3c21 [Example 17, N-(2,2-difluoroethyl)-6,7-difluoro-1-methyl-N-(2-((1-methylcyclopropyl)ethynyl)pyridin-4-yl)-1H-[1,2,3]triazolo[4,5-c]isoquinolin-5-amine]"
7,0.16 µM,"Cn1nnc2nc(N3CCCc4c(C#CC(C)(C)C#N)cncc43)c3c(F)cccc3c21 [Example 30, 4-(1-(6-fluoro-1-methyl-1H-[1,2,3]triazolo[4,5-c]isoquinolin-5-yl)-1,2,3,4-tetrahydro-1,7-naphthyridin-5-yl)-2,2-dimethylbut-3-ynenitrile]"
8,0.143 µM,"Cn1nnc2nc(N(CC(F)F)c3ccnc(C#CC(C)(C)O)c3)c3cc(F)ccc3c21 [Example 27, 4-(4-((2,2-difluoroethyl)(7-fluoro-1-methyl-1H-[1,2,3]triazolo[4,5-c]isoquinolin-5-yl)amino)pyridin-2-yl)-2-methylbut-3-yn-2-ol]"
9,0.0516 µM,"Cn1nnc2nc(N(CC(F)F)c3cc(F)cc(C#CC4(C(F)(F)F)CC4)c3)c3c(F)cncc3c21 [Example 38, N-(2,2-difluoroethyl)-6-fluoro-N-(3-fluoro-5-((1-(trifluoromethyl)cyclopropyl)ethynyl)phenyl)-1-methyl-1H-[1,2,3]triazolo[4,5-c][2,6]naphthyridin-5-amine]"
10,0.00542 µM,"Cn1nnc2nc(N3CCCCc4c(C#CC(C)(C)O)cccc43)c3c(F)cncc3c21 [Example 15, 4-(1-(6-fluoro-1-methyl-1H-[1,2,3]triazolo[4,5-c][2,6]naphthyridin-5-yl)-2,3,4,5-tetrahydro-1H-benzo[b]azepin-6-yl)-2-methylbut-3-yn-2-ol]"
11,0.0261 µM,"Cn1nnc2nc(N(CC(F)F)c3cc(F)cc(C#CC(C)(C)O)c3)c3cc(F)cnc3c21 [Example 34, 4-(3-((2,2-difluoroethyl)(7-fluoro-1-methyl-1H-[1,2,3]triazolo[4,5-h][1,6]naphthyridin-5-yl)amino)-5-fluorophenyl)-2-methylbut-3-yn-2-ol]"
12,0.0314 µM,"Cn1nnc2nc(N(CC(F)F)c3ccnc(C#CC4(C)CC4)c3)c3c(F)cncc3c21 [Example 19, N-(2,2-difluoroethyl)-6-fluoro-1-methyl-N-(2-((1-methylcyclopropyl)ethynyl)pyridin-4-yl)-1H-[1,2,3]triazolo[4,5-c][2,6]naphthyridin-5-amine]"
13,0.013 µM,"Cn1nnc2nc(N3CCCOc4c(C#CC(C)(C)O)cccc43)c3c(F)cncc3c21 [Example 10, 4-(5-(6-fluoro-1-methyl-1H-[1,2,3]triazolo[4,5-c][2,6]naphthyridin-5-yl)-2,3,4,5-tetrahydrobenzo[b][1,4]oxazepin-9-yl)-2-methylbut-3-yn-2-ol]"
14,0.0507 µM,"Cn1nnc2nc(N3CCCc4c(C#CC(C)(C)C#N)cccc43)c3cc(F)cnc3c21 [Example 35, 4-(1-(7-fluoro-1-methyl-1H-[1,2,3]triazolo[4,5-h][1,6]naphthyridin-5-yl)-1,2,3,4-tetrahydroquinolin-5-yl)-2,2-dimethylbut-3-ynenitrile]"
15,0.124 µM,"Cn1nnc2nc(N3CCCc4c(C#CC5(C)CC5)cncc43)c3cc(F)ccc3c21 [Example 22, 7-fluoro-1-methyl-5-(5-((1-methylcyclopropyl)ethynyl)-3,4-dihydro-1,7-naphthyridin-1(2H)-yl)-1H-[1,2,3]triazolo[4,5-c]isoquinoline]"
16,0.0341 µM,"Cn1nnc2nc(N(CC(F)F)c3cc(F)cc(C#CC(C)(C)O)c3)c3cc(F)ccc3c21 [Example 43, 4-(3-((2,2-difluoroethyl)(7-fluoro-1-methyl-1H-[1,2,3]triazolo[4,5-c]isoquinolin-5-yl)amino)-5-fluorophenyl)-2-methylbut-3-yn-2-ol]"
17,0.109 µM,"Cn1nnc2nc(N(CC(F)F)c3ccnc(C#CC(C)(C)C#N)c3)c3c(F)cncc3c21 [Example 20, 4-(4-((2,2-difluoroethyl)(6-fluoro-1-methyl-1H-[1,2,3]triazolo[4,5-c][2,6]naphthyridin-5-yl)amino)pyridin-2-yl)-2,2-dimethylbut-3-ynenitrile]"
18,0.0419 µM,"Cn1nnc2nc(N3CCCc4c(C#CC5(C(F)(F)F)CC5)cccc43)c3c(F)cncc3c21 [Example 40, 6-fluoro-1-methyl-5-(5-((1-(trifluoromethyl)cyclopropyl)ethynyl)-3,4-dihydroquinolin-1(2H)-yl)-1H-[1,2,3]triazolo[4,5-c][2,6]naphthyridine]"
19,0.0102 µM,"Cn1nnc2nc(N3CCCOc4c(C#CC(C)(C)C#N)cccc43)c3c(F)cncc3c21 [Example 8, 4-(5-(6-fluoro-1-methyl-1H-[1,2,3]triazolo[4,5-c][2,6]naphthyridin-5-yl)-2,3,4,5-tetrahydrobenzo[b][1,4]oxazepin-9-yl)-2,2-dimethylbut-3-ynenitrile]"
20,0.0208 µM,"Cn1nnc2nc(N3CCCc4c(C#CC(C)(C)C#N)cccc43)c3c(F)cncc3c21 [Example 5, 4-(1-(6-fluoro-1-methyl-1H-[1,2,3]triazolo[4,5-c][2,6]naphthyridin-5-yl)-1,2,3,4-tetrahydroquinolin-5-yl)-2,2-dimethylbut-3-ynenitrile]"
21,0.0115 µM,"Cn1nnc2nc(N3CCCOc4c(C#CC5(C)CC5)cccc43)c3c(F)cncc3c21 [Example 7, 5-(6-fluoro-1-methyl-1H-[1,2,3]triazolo[4,5-c][2,6]naphthyridin-5-yl)-9-((1-methylcyclopropyl)ethynyl)-2,3,4,5-tetrahydrobenzo[b][1,4]oxazepine]"
22,0.0194 µM,"Cn1nnc2nc(N3CCCc4c(C#CC(C)(C)O)cccc43)c3c(F)cccc3c21 [Example 45, 4-(1-(6-fluoro-1-methyl-1H-[1,2,3]triazolo[4,5-c]isoquinolin-5-yl)-1,2,3,4-tetrahydroquinolin-5-yl)-2-methylbut-3-yn-2-ol]"
23,0.00226 µM,"Cn1nnc2nc(N3CCOCc4c(C#CC5(C)COC5)cccc43)c3c(F)cncc3c21 [Example 4, 1-(6-fluoro-1-methyl-1H-[1,2,3]triazolo[4,5-c][2,6]naphthyridin-5-yl)-6-((3-methyloxetan-3-yl)ethynyl)-1,2,3,5-tetrahydrobenzo[e][1,4]oxazepine]"
24,0.093 µM,"Cn1nnc2nc(N3CCCc4c(C#CC(C)(C)O)cncc43)c3c(F)cncc3c21 [Example 32, 4-(1-(6-fluoro-1-methyl-1H-[1,2,3]triazolo[4,5-c][2,6]naphthyridin-5-yl)-1,2,3,4-tetrahydro-1,7-naphthyridin-5-yl)-2-methylbut-3-yn-2-ol]"
25,0.0105 µM,"CCC1(C#Cc2cccc3c2OCCCN3c2nc3nnn(C)c3c3cncc(F)c23)COC1 [Example 1, 9-((3-ethyloxetan-3-yl)ethynyl)-5-(6-fluoro-1-methyl-1H-[1,2,3]triazolo[4,5-c][2,6]naphthyridin-5-yl)-2,3,4,5-tetrahydrobenzo[b][1,4]oxazepine]"
26,0.0232 µM,"Cn1nnc2nc(N3CCCc4c(C#CC5(C(F)(F)F)CC5)cccc43)c3ccc(Cl)cc3c21 [Example 50, 8-chloro-1-methyl-5-(5-((1-(trifluoromethyl)cyclopropyl)ethynyl)-3,4-dihydroquinolin-1(2H)-yl)-1H-[1,2,3]triazolo[4,5-c]isoquinoline]"
27,0.00859 µM,"Cn1nnc2nc(N3CCOCc4c(C#CC5(C)CC5)cccc43)c3c(F)cncc3c21 [Example 11, 1-(6-fluoro-1-methyl-1H-[1,2,3]triazolo[4,5-c][2,6]naphthyridin-5-yl)-6-((1-methylcyclopropyl)ethynyl)-1,2,3,5-tetrahydrobenzo[e][1,4]oxazepine]"
28,0.0392 µM,"Cn1nnc2nc(N(CC(F)F)c3ccnc(C#CC4(C)CC4)c3)c3cc(F)ccc3c21 [Example 25, N-(2,2-difluoroethyl)-7-fluoro-1-methyl-N-(2-((1-methylcyclopropyl)ethynyl)pyridin-4-yl)-1H-[1,2,3]triazolo[4,5-c]isoquinolin-5-amine]"
